Patent US12290519B2, “Anti-inflammatory coupling compound drug, and preparation method therefor and use thereof” (COVAL BIOPHARMA (SHANGHAI) CO., LTD., priority 2021, dated 2025)

Assay: Hydrolysis rate / drug release rate of the compounds (release of JAK inhibitor, HPLC)
Assay type: physicochemical
Settings: % release of JAK inhibitor from sample in acetonitrile/water=7/3 (v/v), 37° C. constant temperature shaker, sampled days 1-4, HPLC
Experimental: Analysis Method for Hydrolysis Rate of Compounds of the Present Invention
1. Preparation of Standard Working Curve Solution
(§1) About 10 mg of JAK inhibitors (tofacitinib and baricitinib) reference substances were weighed into a 25 mL volumetric flask, acetonitrile/water=7/3 (v/v) was added to dissolve and dilute to the marked volume, serving as a stock solution. The stock solution was diluted with a suitable dilution factor to obtain linear solutions of each concentration: 0.0002 mg/mL, 0.0004 mg/mL, 0.004 mg/mL, 0.04 mg/mL, and 0.08 mg/mL.
as §1, with “(Oclacitinib, Ruxolitinib, Delgocitinib,” for “(tofacitinib”, “Upadacitinib)” for “baricitinib)”
2. Preparation of Sample Solution
About 5 mg of the sample (the compound prepared in the present invention) was weighed into a 20 mL volumetric flask, acetonitrile/water=7/3 (v/v) was added to dissolve and dilute to the marked volume, serving as a stock solution. An appropriate amount of HPLC was loaded as the 0-day sample. The test solution was sealed with a sealing film and placed in a 37° C. constant temperature shaker. The test samples were taken at the same time on days 1, 2, 3, and 4 respectively. the release amount of JAK inhibitor in the sample was calculated according to the sample weight and JAK inhibitor standard curve.
3. Calculation Formula % Release of JAK Inhibitor r=100%×((AJAK Inhibitor−b)/a)/((W/20×M2/M1) wherein • AJAK inhibitor is the peak area of JAK inhibitor in the sample chromatogram • b is the intercept of the standard curve M1 is the molecular weight of the sample a is the slope of the standard curve
W is the sample weight (mg) M2 is the molecular weight of the JAK inhibitor
4. Chromatographic Conditions

Row | SMILES | Release Rate (%/day)
1 | CNS(=O)(=O)CC1CCC(N(C)c2ncnc3c2ccn3COC(=O)Cc2c(C)n(C(=O)c3ccc(Cl)cc3)c3ccc(OC)cc23)CC1 (stereo not drawn) [Ex. 116, (4-(Methyl ((trans)-4-((N-methylsulfamoyl)methyl)cyclohexyl)amino)-7H-pyrrolo [2,3-d]pyrimidin-7-yl) methyl 2-(1-(4-chlorobenzoyl)-5-methoxy-2-methyl-1H-indol-3-yl) acetate] | 0.42
2 | Cc1c(Cl)cccc1Nc1ccccc1C(=O)n1ccc2c(-c3cnn([C@H](CC#N)C4CCCC4)c3)ncnc21 [Ex. 57, (R)-3-(4-(7-(2-((3-chloro-2-methylphenyl)amino)benzoyl)-7H-pyrrolo [2,3-d]pyrimidin-4-yl)-1H-pyrazol-1-yl)-3-cyclopentylpropanenitrile] | 0.57
3 | CCc1cccc2c3c([nH]c12)C(CC)(CC(=O)OCn1ccc2c(-c4cnn(C5(CC#N)CN(S(=O)(=O)CC)C5)c4)ncnc21)OCC3 (stereo not shown) [Ex. 85, Methyl (4-(1-(3-(cyanomethyl)-1-(ethylsulfonyl)azetidin-3-yl)-1H-pyrazol-4-yl)-7H-pyrrolo [2,3-d]pyrimidin-7-yl) 2-(1,8-diethyl-1,3,4,9-tetrahydropyrano [3,4-b]indol-1-yl) acetate] | 0.61
4 | COc1ccc2c(c1)c(CC(=O)OCn1ccc3c(N(C)[C@H]4CN(C(=O)CC#N)CC[C@H]4C)ncnc31)c(C)n2C(=O)c1ccc(Cl)cc1 [Ex. 55, (4-(((3R, 4R)-1-(2-cyanoacetyl)-4-methylpiperidin-3-yl) (methyl)amino)-7H-pyrrolo [2,3-d]pyrimidin-7-yl) methyl 2-(1-(4-chlorobenzoyl)-5-methoxy-2-methyl-1H-indol-3-yl) acetate] | 0.16
5 | CC(C(=O)n1ccc2c(N(C)[C@H]3CN(C(=O)CC#N)CC[C@H]3C)ncnc21)c1ccc(CC2CCCC2=O)cc1 (stereo partly drawn) [Ex. 11, 3-((3R,4R)-4-methyl-3-(methyl (7-(2-(4-((2-oxocyclopentyl)methyl)phenyl)propanoyl)-7H-pyrrolo[2,3-d]pyrimidin-4-yl)amino)piperidin-1-yl)-3-oxopropanenitrile] | 9.17
6 | CC(C)Cc1ccc(C(C)C(=O)n2ccc3c(N(C)[C@H]4CN(C(=O)CC#N)CC[C@H]4C)ncnc32)cc1 (stereo partly drawn) [Ex. 1, 3-((3R,4R)-3-((7-(2-(4-isobutylphenyl)propanoyl)-7H-pyrrolo [2,3-d]pyrimidin-4-yl) (methyl)amino)-4-methylpiperidin-1-yl)-3-oxopropanenitrile] | 8.26
7 | CC(=O)Nc1ccc(CC(=O)OCn2ccc3c(N(C)[C@H]4CN(C(=O)CC#N)CC[C@H]4C)ncnc32)cc1 [Ex. 59, (4-(((3R, 4R)-1-(2-cyanoacetyl)-4-methylpiperidin-3-yl) (methyl)amino)-7H-pyrrolo [2,3-d]pyrimidin-7-yl) methyl 2-(4-acetamidophenyl) acetate] | 0.15
8 | CNS(=O)(=O)C[C@H]1CC[C@H](N(C)c2ncnc3c2ccn3C(=O)C(C)c2ccc(CC3CCCC3=O)cc2)CC1 (stereo partly drawn) [Ex. 44, N-methyl-1-((trans)-4-(methyl (7-(2-(4-((2-oxocyclopentyl)methyl)phenyl)propanoyl)-7H-pyrrolo [2,3-d]pyrimidin-4-yl)amino)cyclohexyl) methanesulfonamide] | 10.18
9 | CNS(=O)(=O)C[C@H]1CC[C@H](N(C)c2ncnc3c2ccn3COC(=O)[C@@H](C)c2ccc(CC(C)C)cc2)CC1 [Ex. 88, (4-(Methyl ((trans)-4-((N-methylsulfamoyl)methyl)cyclohexyl)amino)-7H-pyrrolo [2,3-d]pyrimidin-7-yl) methyl (S)-2-(4-isobutylphenyl) propanoate] | 0.17
10 | CCC(C(=O)OCn1ccc2c(-c3cnn(C4(CC#N)CN(S(=O)(=O)CC)C4)c3)ncnc21)c1ccc(N2Cc3ccccc3C2=O)cc1 (stereo not shown) [Ex. 76, Methyl (4-(1-(3-(cyanomethyl)-1-(ethylsulfonyl)azetidin-3-yl)-1H-pyrazol-4-yl)-7H-pyrrolo [2,3-d]pyrimidin-7-yl) 2-(4-(1-oxoisoindolin-2-yl)phenyl) butanoate] | 0.05
11 | CC[C@@H]1CN(C(=O)NCC(F)(F)F)C[C@@H]1c1cnc2cnc3c(ccn3C(=O)[C@@H](C)c3ccc4cc(OC)ccc4c3)n12 [Ex. 131] | 3.56
12 | CC(C(=O)OCn1ccc2c(-c3cnn([C@H](CC#N)C4CCCC4)c3)ncnc21)c1cccc(C(=O)c2ccccc2)c1 (stereo partly drawn) [Ex. 99, (4-(1-((R)-2-cyano-1-cyclopentylethyl)-1H-pyrazol-4-yl)-7H-pyrrolo [2,3-d]pyrimidin-7-yl) methyl 2-(3-benzoylphenyl) propanoate] | 0.21
13 | CC(=O)Nc1ccc(CC(=O)OCn2ccc3c(-c4cnn([C@H](CC#N)C5CCCC5)c4)ncnc32)cc1 [Ex. 110, (R)-(4-(1-(2-cyano-1-cyclopentylethyl)-1H-pyrazol-4-yl)-7H-pyrrolo [2,3-d]pyrimidin-7-yl) methyl 2-(4-acetamidophenyl) acetate] | 0.08
14 | CC(C(=O)OCn1ccc2c(N(C)[C@H]3CN(C(=O)CC#N)CC[C@H]3C)ncnc21)c1cccc(Oc2ccccc2)c1 (stereo partly drawn) [Ex. 52, (4-(((3R, 4R)-1-(2-cyanoacetyl)-4-methylpiperidin-3-yl) (methyl)amino)-7H-pyrrolo [2,3-d]pyrimidin-7-yl) methyl 2-(3-phenoxyphenyl) propanoate] | 0.1
15 | CCS(=O)(=O)N1CC(CC#N)(n2cc(-c3ncnc4c3ccn4C(=O)c3ccccc3Nc3cccc(C)c3C)cn2)C1 [Ex. 47, 2-(3-(4-(7-(2-((2,3-Dimethylphenyl)amino)benzoyl)-7H-pyrrolo [2,3-d]pyrimidin-4-yl)-1H-pyrazol-1-yl)-1-(ethylsulfonyl)azetidin-3-yl) acetonitrile] | 0.36
16 | CCC(C(=O)n1ccc2c(-c3cnn([C@H](CC#N)C4CCCC4)c3)ncnc21)c1ccc(N2Cc3ccccc3C2=O)cc1 (stereo partly drawn) [Ex. 34, (3R)-3-cyclopentyl-3-(4-(7-(2-(4-(1-oxoisoindolin-2-yl)phenyl)butanoyl)-7H-pyrrolo [2,3-d]pyrimidin-4-yl)-1H-pyrazol-1-yl) propanenitrile] | 1.57
17 | Cc1cnc(NC(=O)C2=C(OCn3ccc4c(N(C)[C@H]5CN(C(=O)CC#N)CC[C@H]5C)ncnc43)c3ccccc3S(=O)(=O)N2C)s1 [Ex. 142, 4-((4-(((3R, 4R)-1-(2-cyanoacetyl)-4-methylpiperidin-3-yl) (methyl)amino)-7H-pyrrolo [2,3-d]pyrimidin-7-yl)methoxy)-2-methyl-N-(5-methylthiazol-2-yl)-2H-benzo [e] [1, 2] thiazine-3-carboxamide 1,1-dioxide] | 0.05
18 | CC(=O)Oc1ccccc1C(=O)n1ccc2c(N(C)[C@H]3CN(C(=O)CC#N)CC[C@H]3C)ncnc21 [Ex. 15, 2-(4-((3R, 4R)-1-(2-cyanoacetyl)-4-methylpiperidin-3-yl) (methyl)amino)-7H-pyrrolo[2,3-d] pyrimidine-7-carbonyl)phenyl acetate] | 1.86
19 | CC(C(=O)n1ccc2c(-c3cnn([C@H](CC#N)C4CCCC4)c3)ncnc21)c1ccc(CC2CCCC2=O)cc1 (stereo partly drawn) [Ex. 77, (3R)-3-cyclopentyl-3-(4-(7-(2-(4-((2-oxocyclopentyl)methyl)phenyl)propanoyl)-7H-pyrrolo [2,3-d]pyrimidin-4-yl)-1H-pyrazol-1-yl) propanenitrile] | 3.69
20 | CNS(=O)(=O)C[C@H]1CC[C@H](N(C)c2ncnc3c2ccn3C(=O)C(C)c2cccc(Oc3ccccc3)c2)CC1 (stereo partly drawn) [Ex. 68, N-methyl-1-((trans)-4-(methyl (7-(2-(3-phenoxyphenyl)propanoyl)-7H-pyrrolo [2,3-d]pyrimidin-4-yl)amino)cyclohexyl) methanesulfonamide] | 10.6
21 | CCS(=O)(=O)N1CC(CC#N)(n2cc(-c3ncnc4c3ccn4COC(=O)C(C)c3ccc(CC4CCCC4=O)cc3)cn2)C1 (stereo not shown) [Ex. 72, Methyl (4-(1-(3-(cyanomethyl)-1-(ethylsulfonyl)azetidin-3-yl)-1H-pyrazol-4-yl)-7H1-pyrrolo [2,3-d]pyrimidin-7-yl) 2-(4-((2-oxocyclopentyl)methyl)phenyl) propanoate] | <0.01
22 | CC[C@@H]1CN(C(=O)NCC(F)(F)F)C[C@@H]1c1cnc2cnc3c(ccn3C(=O)Cc3c(C)n(C(=O)c4ccc(Cl)cc4)c4ccc(OC)cc34)n12 [Ex. 133, (3R, 4S)-3-(3-(2-(1-(4-Chlorobenzoyl)-5-methoxy-2-methyl-1H-indol-3-yl)acetyl)-3H-imidazo [1,2-a]pyrrolo [2,3-e]pyrazin-8-yl)-4-ethyl-N-(2,2,2-trifluoroethyl) pyrrolidine-1-carboxamide] | 10.13
